Laboratory results taken from patent US6827926B2, “Metallotetrapyrrolic photosensitizing agents for use in photodynamic therapy” (Miravant Pharmaceuticals, Inc., priority 2001, dated 2004).
Where two headings read alike, the source gives them in different places.

What was measured:
[1] = test system: V79 (Chinese Hamster Lung Fibroblasts) cells; assay: In vitro cytotoxicity assay (light EC50, Alamar blue); format: cell-based
Procedure, shortened: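 V79 cells in phenol-free 5% FBS/DMEM exposed 24 h to photosensitizer at final 0.01–5.0 μM, six replicates, then washed and light-treated, with a dark plate as control. Survival by Alamar blue after 24 h dark incubation, read at 570/600 nm.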

[2] = test system: normal skin of CD Hairless male rats; format: in vivo, rat
Procedure, shortened: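 Liposomal egg yolk phospholipid photosensitizer given as single i.v. tail-vein bolus at 1, 1.5 and 2 μmol/kg; skin spots irradiated with 532 nm laser (150 mW/cm^2, 150J, 1 cm) at 1, 6, 24, 48, 96 hrs post injection. Value is time of last observed skin response spot.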

[3] = test system: normal uninjured rat carotid arteries (medial and adventitial cell populations); assay: In vivo rat carotid artery acellularity after PDT; set-up: species or system Sprague Dawley rats; details: for Max % Rat Artery Accelularity: Table 4, 575 nm (Pt 532 nm); for Max % Rat Artery Accelularity / Max % rat Artery Accelularity: drug dose 1 μMol; for accelularity in rat artery at a four hour treatment point: 4 hrs post administration; for Max % rat Artery Accelularity: Table 3
Procedure, shortened: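 Metallated photosensitizers light-activated in normal uninjured rat left common carotid via balloon catheter introduced through femoral arteriotomy under isoflurane; excitation 575 nm (Ga, Zn, Al, Sn) or 532 nm (Pt). Arteries harvested 3 days post-treatment, H&E-stained; medial and adventitial cell density assessed by light microscopy.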

[4] = Table 4 azaporphyrins, 575 nm (Pt azaporphyrins 532 nm), 1.25 J/cm^2, read-out: In Vitro EC(50)
[5] = Table 3 porphyrins, 24 h drug incubation, 532 nm, 1.25 J/cm^2, read-out: In Vitro EC50 Light
[6] = 50 J/cm^2, 3 days post treatment

Row | Normal skin Response (1 μmol) ([2]; rat, in vivo) [h] | SMILES | EC50 [1, 4] [nM] | Max % Rat Artery Accelularity [3] [%] | EC50 [1, 5] [nM] | also measured
1 | 48 | CCC1=C(CC)C2=[N+]3C1=Nc1c(CC)c(CC)c4[n]1[In-2]31([Cl])[n]3c(c(C)c(CCC(=O)OC)c3=CC3=[N+]1C(=C4)C(C)=C3CCC(=O)OC)=C2 [Example 83, Indium Chloride 7,8,12,13-tetraethyl-12,17-dimethyl-10-azaporphyrin-2,18-di(propionic acid methyl ester)] | 30 | 50 | – | –
2 | 24 | CCC1=C(CC)C2=[N+]3C1=Nc1c(CC)c(CC)c4[n]1[Ga-2]31([Cl])[n]3c(c(C)c(CCC(=O)O)c3=CC3=[N+]1C(=C4)C(C)=C3CCC(=O)O)=C2 [Example 87, Gallium Chloride 7,8,12,13-tetraethyl-12,17-dimethyl-10-azaporphyrin-2,18-di(propionic acid)] | 310 | 30 | – | accelularity in rat artery at a four hour treatment point [3]: 30%
3 | 24 | CCOC(=O)CCC1=C(C)C2=Cc3c(CC)c(CC)c4[n]3[Ga-2]35([Cl])[n]6c(c(C)c(CCC(=O)OCC)c6=CC1=[N+]23)=CC1=[N+]5C(=N4)C(CC)=C1CC [Example 89, Gallium Chloride 7,8,12,13-tetraethyl-12,17-dimethyl-10-azaporphyrin-2,18-di(propionic acid ethyl ester)] | 400 | 60 | – | –
4 | 96 | CCC1=C(CC)C2=Nc3c(CC)c(CC)c4[n]3[Sn]([Cl])([Cl])[n]3c(c(C)c(CCC(=O)NC)c3=CC3=NC(=C4)C(C)=C3CCC(=O)NC)=CC1=N2 [Example 90, Tin (IV) Dichloride 7,8,12,13-tetraethyl-12,17-dimethyl-10-azaporphyrin-2,18-di(propionic acid methyl amide)] | 500 | 30 | – | –
5 | 48 | CCC1=C(CC)C2=Nc3c(CC)c(CC)c4[n]3[In]([Cl])[n]3c(c(C)c(CCC(=O)NC)c3=CC3=NC(=C4)C(C)=C3CCC(=O)NC)=CC1=N2 [Example 91, Indium Chloride 7,8,12,13-tetraethyl-12,17-dimethyl-10-azaporphyrin-2,18-di(propionic acid methyl amide)] | 70 | 50 | – | –
6 | – | CCC1=C(CC)C2=Nc3c(CC)c(CC)c4[n]3[Ga]([Cl])[n]3c(c(C)c(CCCC(=O)OC)c3=CC3=NC(=C4)C(C)=C3CCCC(=O)OC)=CC1=N2 [Example 108, Gallium Chloride 7,8,12,13-tetraethyl-12,17-dimethyl-10-azaporphyrin-2,18-di(butanoic acid methyl ester)] | 400 | 55 | – | Normal skin Response (1 μmol) ([2]; Table 4, time of last skin spot observed post injection, 1 μmol): 24 h
7 | – | CCC1=C(C)c2cc3[n-]c(cc4nc(cc5[n-]c(cc1n2)c(C)c5CC)C(C)=C4CCC(=O)[O-])c(CCC(=O)[O-])c3C.[Ga+3].[Na+].[Na+].[OH-] [Example 109, Gallium Hydroxy Mesoporphyrin Disodium Salt] | – | – | 2400 | Normal skin Response (1 μmol) in hrs ([2]; rat, in vivo): none; normal skin response at the drug doses used ([2]; rat, in vivo): no observed normal skin response; acellularity following PDT of rat arteries at longer treatment times post injection ([3]; 16, 24 hrs post injection): significant acellularity; accelularity in rat artery at a four hour treatment point [3]: 10%; Max % rat Artery Accelularity ([3]; 4 hrs): 10/4 hrs. %; Max % rat Artery Accelularity ([3]; 24 hrs): 100/24 hrs %
8 | 24 | CCC1=C(C)c2cc3[n-]c(cc4nc(cc5[n-]c(cc1n2)c(C)c5CC)C(C)=C4CCCCC(=O)[O-])c(CCCCC(=O)[O-])c3C.[Ga+3].[Na+].[Na+].[OH-] [Example 114, Gallium Hydroxy 8,13-diethyl-3,7,12,17-tetramethylporphyrin-2,18-di(pentanoic acid sodium salt)] | – | – | 2300 | Max % rat Artery Accelularity [3, 6]: 20%
9 | 6 | CCCOC(=O)CCC1=C(C)c2cc3[n-]c(cc4nc(cc5[n-]c(cc1n2)c(CCC(=O)OCCC)c5C)C=C4C)cc3C.[Cl-].[Ga+3] [Example 122, Gallium Chloride Deuteroporphyrin Di-propylester] | – | – | 350 | Max % rat Artery Accelularity [3, 6]: 95%
